This test in a line: carbonyl-quenching activity on HNE in vitro (residual HNE by reversed-phase chromatography). The settings on record: for reacted HNE (%) t = 1 h mean / reacted HNE (%) t = 3 h mean / reacted HNE (%) t = 2 h mean: HNE 50 μM, compound 1 mM, phosphate buffer 10 mM pH 7.4, 37° C.; for reacted HNE (%) t = 1 h mean: one hour incubation; for reacted HNE (%) t = 3 h mean: three hours incubation; for reacted HNE (%) t = 2 h mean: two hours incubation. The method, then: The pharmacological activity of the compounds of the invention was determined in vitro evaluating their carbonyl-quenching activity on 4-hydroxy nonenal (HNE), which is known to be involved in a number of pathologies.
The carbonyl-quenching activity of a selected series of compounds of the present invention was assessed in vitro, incubating HNE (50 μM) with the tested compounds (1 mM), in phosphate buffer (10 mM) pH 7.4 at 37° C. The activity was evaluated after one, two and three hours incubation, determining the residual content of HNE by reversed-phase chromatography as described by Aldini G et al. [Biochem Biophys Res Commun. 2002 Nov. 15; 298(5):699-706]. The carbonyl-quenching activity is expressed as the reacted HNE percent compared with the HNE content in the absence of the test compounds.

As to `NCCC(=O)N[C@@H](Cc1cnc[nH]1)C(=O)O` [Carnosine, reference compound], the “reacted HNE (%) t = 1 h mean” value is 17.39%, the “reacted HNE (%) t = 3 h mean” value amounted to 43.59% and the “reacted HNE (%) t = 2 h mean” value worked out at 31.65%.

`C[C@H](N)CC(=O)N[C@H](Cc1c[nH]cn1)C(=O)O` [FL-926-A-002, (3S)-3-aminobutanoyl-D-histidine]: the “reacted HNE (%) t = 1 h mean” value came to 6.568%, the “reacted HNE (%) t = 3 h mean” value worked out at 21.58% and the “reacted HNE (%) t = 2 h mean” value was found to be 14.26%.

Take `N[C@@H](Cc1ccccc1)[C@@H](O)C(=O)N[C@H](Cc1c[nH]cn1)C(=O)O` [FL-926-A-005, (2R,3S)-3-amino-2-hydroxy-4-phenylbutanoyl-D-histidine]: the “reacted HNE (%) t = 1 h mean” value was 15.2%, the “reacted HNE (%) t = 3 h mean” value turned out to be 38.56% and the “reacted HNE (%) t = 2 h mean” value came out at 27.75%.

Turning to `N[C@@H](CC(=O)N[C@H](Cc1c[nH]cn1)C(=O)O)c1ccccc1` [FL-926-A-006, (3S)-3-amino-3-phenylpropanoyl-D-histidine], the “reacted HNE (%) t = 1 h mean” value amounted to 29.3%, the “reacted HNE (%) t = 3 h mean” value stood at 65.8531% and the “reacted HNE (%) t = 2 h mean” value turned out to be 50.7209%. Moreover, for the setting “after one hour incubation”, the “carbonyl-quenching activity compared with carnosine” value is “almost twice as high”.

Source of the values: patent US8765798B2, “Peptide derivatives with therapeutic activity” (Flamma S.p.A., priority 2006, dated 2014).
